Reference: ChEMBL document CHEMBL3046891, “Potent antimalarial activity of newly synthesized substituted chalcone analogs in vitro” (Med Chem Res, 2009)
In brackets after ≈: the same amount, converted by molar mass.

Tested on: Plasmodium falciparum
Test: Antimalarial activity against blood-stage Plasmodium falciparum 3D7 after 48 hr by Giemsa staining method
Assay type: functional, organism-based
Settings: 3D7, 48 h

Row | SMILES | IC50 [µg/mL]
1 | COc1cc(/C=C/C(=O)c2ccc(-n3ccnc3)cc2)cc(OC)c1OC | 2.48 (≈ 6.81 µM)
2 | COc1ccc(/C=C/C(=O)c2ccc(N3CCOCC3)cc2)cc1 | 7.9 (≈ 24.4 µM)
3 | COc1cc(/C=C/C(=O)c2ccc(N3CCCC3)cc2)cc(OC)c1OC | 13 (≈ 35.4 µM)
4 | COc1cc(/C=C/C(=O)c2ccc(N3CCCC3)cc2)cc(OC)c1 | 8.43 (≈ 25 µM)
5 | COc1ccc(/C=C/C(=O)c2ccc(N3CCCCC3)cc2)cc1OC | 3.13 (≈ 8.91 µM)
6 | O=C(/C=C/c1cc2ccccc2nc1Cl)c1ccc(N2CCOCC2)cc1 | 17 (≈ 45 µM)
7 | COc1ccc(/C=C/C(=O)c2ccc(N3CCCC3)cc2)cc1 | 6.3 (≈ 20.5 µM)
8 | COc1ccc(/C=C/C(=O)c2ccc(-n3cncn3)cc2)cc1 | 4.56 (≈ 14.9 µM)
9 | COc1ccc(/C=C/C(=O)c2ccc(-n3cccc3)cc2)cc1 | 1.61 (≈ 5.31 µM)
10 | COc1cc(/C=C/C(=O)c2ccc(-n3cccc3)cc2)cc(OC)c1OC | 2.03 (≈ 5.59 µM)
11 | COc1cc(/C=C/C(=O)c2ccc(N3CCNCC3)cc2)cc(OC)c1OC | 9 (≈ 23.5 µM)
